The values that follow come from patent publication US11357752B2, “Carolacton and derivatives thereof for use in the treatment of cell proliferation disorders” (Helmholtz-Zentrum für Infektionsforschung GmbH, priority 2017, dated 2022).

Common to all, as to assay: FoID dehydrogenase (DH) enzyme assay
What all share (assay type): biochemical, E. coli

The target of one assay is T1, ecFoID ΔK54R55 (Escherichia coli, UniProt P24186, DEL54-55).
T1 construct: made in house; host or cells: E. coli BL21 (DE3)
The procedure:
(§1) (6R,S)-5,10-Methylene-5,6,7,8-tetrahydrofolic acid ((6R,S)-5,10-CH2-THF), calcium salt and (6R,S)-5,10-Methenyl-5,6,7,8-tetrahydrofolic acid ((6R,S)-5,10-CH=THF) chloride were purchased from Schircks Laboratories (Bauma, Switzerland) and were used as substrates for FoID dehydrogenase and cyclohydrolase enzyme assays, respectively. Only the R-isomer, which accounts for 50% of (6R,S)-5,10-CH2-THF and (6R,S)-5,10-CH=THF, respectively, is used by the enzyme. (6R,S)-5,10-CH2-THF was dissolved in N2-spargeled basic buffer (50 mM Tris-HCl (pH 8.0), 100 mM β-mercaptoethanol) as described by Sah and Varshney, 2015a (6R,S)-5,10-CH=THF was first dissolved in DMSO as a 100 mM stock solution.
(§2) Because FoID is a bifunctional enzyme, dehydrogenase and cyclohydrolase activities were determined for FoID enzyme kinetics, respectively. The dehydrogenase activity of FoID was assayed for its substrate 5,10-CH2-THF and cofactor NADP+ (in the case of MTHFD2, NAD+ was used as cofactor) based on monitoring the formation of 5,10-CH=THF while the cyclohydrolase activity of FoID was determined for its substrate 5,10-CH=THF by monitoring the hydrolysis of 5,10-CH2-THF. The enzyme kinetics for the dehydrogenase activity of all FoIDs except hsMTHFD1_DC were determined at 30° C. in 50 mM Tris-HCl (pH 7.5), 30 mM β-mercaptoethanol. The hsMTHFD1_DC dehydrogenase activity was measured in 25 mM MOPS (pH 7.3), 30 mM β-mercaptoethanol at 30° C. To measure the enzyme kinetics constants for 5,10-CH2-THF, for example in the case of ecFoID, the NADP concentration was fixed at 1 mM and the concentration of 5,10-CH2-THF varied from 5 μM to 1,500 μM (R-isomer). Similarly, to measure the kinetic constants of ecFoID for NADP+, the concentration of 5,10-CH2-THF (R-isomer) was fixed at 1 mM and the concentration of NADP+ varied from 10 μM to 1,500 μM. For different FoIDs, the varied concentration range of substrates could be different. The 50 μL reactions of dehydrogenase assays were initiated by adding appropriate amounts enzyme (4 nM ecFoID, 4 nM spFoID, 15 nM hsMTHFD1_DC, 20 nM hsMTHFD2, 20 nM G8S, 20 nM Q98H, 10 nM K54N, 200 nM ΔK54R55 in the corresponding assays) and terminated with 50 μL 1 M HCl after 2 min incubation at 30° C. To monitor the formation of 5,10-CH=THF, the absorbance of the reaction mixture was monitored at 350 nm in micro UV cuvettes (BRAND, Essex, Connecticut, USA). The concentration of 5,10-CH=THF produced in the reaction was determined using an extinction co-efficient of 0.0249 μM-1 cm-1. Cyclohydrolase activity for each FoID was assayed in the same buffer as dehydrogenase activity at 30° C. but for 30 s. The concentration of FoID used in each assay was 5 nM of ecFoID, spFoID and hsMTHFD1_DC, respectively, and 2 nM of hsMTHFD2. The consumption of 5,10-CH=THF was measured by recording the absorbance of the reactions at 355 nm using the TECAN Infinite 200 PRO equipped with a monochromator. To measure the enzyme kinetic constants, different concentrations of 5,10-CH=THF (varied from […]) were used in […] reaction mixtures. The inhibition constants (Ki) of carolacton on FoID were determined by measuring the apparent Km values when adding certain amounts of carolacton to the enzyme reactions. For ecFoID, 10 nM carolacton was added in the dehydrogenase assay and 50 nM carolacton was used in the cyclohydrolase assay. For spFoID, 25 nM carolacton was added in both dehydrogenase assay and cyclohydrolase assay. For hsMTHFD1_DC, 30 nM carolacton was added in the dehydrogenase assay and 10 nM in the cyclohydrolase assay. […] To compare the inhibition effects of carolacton between the different FoIDs, the half maximal inhibitory concentration (IC50) of carolacton on the same amount of enzyme was determined for FoIDs involved in this study. The enzyme concentration used to determine dehydrogenase activity IC50 was 10 nM, and the enzyme used for cyclohydrolase IC50 measurements was 5 nM. All enzyme kinetics measurements were performed as independent triplicates. […]

Another assay addresses T2, ecFoID K54N (Escherichia coli, UniProt P24186, K54N).
T2 construct: made in house; host or cells: E. coli BL21 (DE3)
As for the experimental part: as §1, §2

In the next assay the target is T3, ecFoID (Escherichia coli, UniProt P24186).
T3 construct: His-tag (vector pHis-TEV); made in house; host or cells: E. coli BL21 (DE3)
The conditions noted are these: for Ki: carolacton inhibition on DH activity, ecFoID. As for the experimental part:
as §1, §2

A further assay addresses T4, ecFoID Q98H (Escherichia coli, UniProt P24186, Q98H).
T4 construct: made in house; host or cells: E. coli BL21 (DE3)
The procedure: as §1, §2

For the next assay, the target named is T5, ecFoID G8S (Escherichia coli, UniProt P24186, G8S).
T5 construct: made in house; host or cells: E. coli BL21 (DE3)
As for the experimental part: as §1, §2

Molecules are shown by their SMILES. Where “and” joins values, the source holds several entries; their conditions need not be identical. Identical values can stand only once.

For the compound `CO[C@H](CC(=O)O)[C@@H](C)C(=O)[C@H](C)/C=C(\C)[C@H]1OC(=O)[C@H](O)[C@H](O)/C=C/[C@H](C)CCC[C@@H]1C` [Carolacton, carolacton], the “sensitivity of residual DH activity to carolacton” value on ecFoID ΔK54R55 and on ecFoID K54N was “completely insensitive” each time. The figures for the IC50 against ecFoID, against ecFoID Q98H and at ecFoID G8S were 15.5 nM, 313 nM and 86.5 nM, respectively. In addition, the Ki on ecFoID (Ki (5,10-CH2—THF), vs 5,10-CH2-THF) is 21 nM and 21.3 nM; at ecFoID (Ki (NADP^+), vs cofactor NADP+), 11 nM and 10.9 nM.
